Reference: US4267312A, “Anthracycline derivatives and process for preparing the same” (Sanraku-Ocean Co., Ltd., priority 1978, dated 1981)
In brackets after ≈: the same amount, converted by molar mass.

What was measured:
[1] = tested on: murine leukemic L1210 cells; assay: growth inhibition of murine leukemic L1210 cells in culture; assay type: cell-based; conditions: Mus musculus, RPMI 1640, 20% calf serum, 37° C., read-out: inhibition of control growth; for inhibition at 0.5 µg/mL: 0.5 μg/ml
Protocol: For example, L1210 cells were inoculated into a RPMI 1640 medium (Nissui, Rosewell Park Memorial Institute 1640) containing 20% calf serum at the cell density of 5×10^4 cells/ml and the compound in the present invention was simultaneously added to the medium at the concentration of 0.1 and 0.5 μg/ml and cultivated at 37° C. in a CO2 incubator.

[2] = tested on: biosynthesis of DNA in L1210 cells; assay: DNA biosynthesis in L1210 cells (incorporation of 14C-thymidine into acid-insoluble materials); assay type: cell-based, murine; conditions: Mus musculus, L1210, 1 h; 60 min, 37° C., 14C-thymidine 0.05 μCi/ml; read-out: IC50 of the incorporation of radioactivity into acid-insoluble materials, 14C-thymidine
Protocol: (§1) (2) L1210 cells were inoculated at 5×10^5 cells/ml into a RPMI 1640 medium containing 10% calf serum and cultivated at 37° C. for 1 to 2 hours in a CO2 incubator. The compound in the present invention at various concentrations and ^14 C-thymidine (0.05 μCi/ml) or ^14 C-uridine (0.05 μCi/ml) were added and incubated at 37° C. for 60 min. After stopping the pulse-labeling by addition of 10% trichloroacetic acid (TCA) to the reaction mixture, acid-insoluble materials were precipitated, washed 3 times with 5 to 10% TCA, and dissolved in a small amount of formic acid, and then the radioactivity of the solution was determined. Effects on the biosynthesis of DNA and RNA were shown by the 50% inhibition concentration (IC50) of the incorporation of radioactivity into acid-insoluble materials.

[3] = tested on: biosynthesis of RNA in L1210 cells; assay: RNA biosynthesis in L1210 cells (incorporation of 14C-uridine into acid-insoluble materials); assay type: cell-based, murine; conditions: Mus musculus, L1210, 1 h; 60 min, 37° C., 14C-uridine 0.05 μCi/ml; read-out: IC50 of the incorporation of radioactivity into acid-insoluble materials, 14C-uridine
Protocol: as §1

[4] = tested on: leukemic L1210; assay: antitumor activity in leukemic L1210-bearing mice; assay type: in vivo, BDF1 mice; conditions: in words
Protocol: (§2) For example, BDF1 mice were inoculated intraperitoneally with 1×10^6 cells/mouse. 24 hours after inoculation, the compound was intraperitoneally injected once daily for 10 days consecutively. […] At the dose of 10 mg/kg/day weight loss was observed, but general toxicity was less than daunomycin.

[5] = toxicity in mice; assay type: in vivo; conditions: in words
Protocol: as §2

[6] = tested on: Sal. typhimurium; assay: mutagenicity by the Ames' test

Structure (SMILES)	inhibition at 0.1 µg/mL ([1]; 0.1 μg/ml) [%]	inhibition at 0.5 µg/mL [1] [%]	IC50 [2] [µg/mL]	IC50 [3] [µg/mL]	antitumor activity in leukemic L1210-bearing mice [4]	toxicity in mice compared with daunomycin [5]	mutagenicity relative to daunomycin [6]
COc1ccc(O)c2c1C(=O)c1c(O)c3c(c(O)c1C2=O)C[C@@](O)(C(C)O)C[C@@H]3O[C@H]1C[C@H](N)[C@H](O)[C@H](C)O1 (stereo partly shown) [1-hydroxy-13-dihydrodaunomycin]	10.8	52.2	3.8 (≈ 6.97 µM)	1.8 (≈ 3.3 µM)	marked antitumor activity	lower toxicity than daunomycin	decrease about a half of daunomycin
COc1ccc(O)c2c1C(=O)c1c(O)c3c(c(O)c1C2=O)C[C@@](O)(C(C)O)C[C@@H]3O[C@H]1C[C@H](NC=O)[C@H](O)[C@H](C)O1 (stereo partly shown) [N-formyl-1-hydroxy-13-dihydrodaunomycin]		16	> 2.5	> 2.5	marked antitumor activity	lower toxicity than daunomycin	decrease about a half of daunomycin
